Assay results from article PMC11868579 (Nature Communications, 2024).
“And” between values parts separate entries of the source, which are not always exact repeats. Identical values can stand only once.

What was measured:
[1] = target: T1, endogenous eIF4E:eIF4G interaction (Homo sapiens, UniProt P06730); assay: Electro-chemiluminescent eIF4E:eIF4G assay after treatment of intact H1299 cells; type: cell-based; conditions: 100 µM; for endogenous eIF4E:eIF4G interaction in intact cells, electro-chemiluminescent signal, Average: H1299
T1 construct: endogenous in cells; host or cells: HeLa, SW620 or H1299 cells (lysates; intact H1299 cells in A13)
T1 sequence (P06730 2-217 limits assumed): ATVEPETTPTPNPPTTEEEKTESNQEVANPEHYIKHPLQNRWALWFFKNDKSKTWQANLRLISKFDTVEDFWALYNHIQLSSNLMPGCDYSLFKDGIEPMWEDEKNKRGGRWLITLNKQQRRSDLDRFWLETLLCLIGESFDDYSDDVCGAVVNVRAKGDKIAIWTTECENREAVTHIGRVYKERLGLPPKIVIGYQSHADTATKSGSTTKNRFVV

[2] = tested on: H1299 cells; assay: CellTiter-Blue cell viability, H1299; type: cell-based, human; conditions: for Cell viability by cell titre blue assay, Average: H1299, 4 days, n=3
Description: Cell viability was measured by CellTiter-Blue® Cell Viability Assay. Cells were seeded in 96 well plates (Corning, cat#353072) and left overnight. Compounds were added at a range of concentrations and plates incubated at 37 °C for 96 hr. Cell titre blue reagent (Promega, Hampshire, UK, cat# G8081) was added (5 μl/well) and incubated for a further 2 h at 37 °C. Fluorescence (579Ex/584Em) was measured using a PHERAstar plate reader.

[3] = target: T2, eIF4E-dTAG protein (Homo sapiens, UniProt P06730); assay: CETSA of eIF4E-dTAG protein in H1299 C3-1 cells; type: cell-based; conditions: relative to control = 1.000, n=3
T2 construct: expressed in transfected cells
T2 sequence (P06730 with tags, fused parts or gaps): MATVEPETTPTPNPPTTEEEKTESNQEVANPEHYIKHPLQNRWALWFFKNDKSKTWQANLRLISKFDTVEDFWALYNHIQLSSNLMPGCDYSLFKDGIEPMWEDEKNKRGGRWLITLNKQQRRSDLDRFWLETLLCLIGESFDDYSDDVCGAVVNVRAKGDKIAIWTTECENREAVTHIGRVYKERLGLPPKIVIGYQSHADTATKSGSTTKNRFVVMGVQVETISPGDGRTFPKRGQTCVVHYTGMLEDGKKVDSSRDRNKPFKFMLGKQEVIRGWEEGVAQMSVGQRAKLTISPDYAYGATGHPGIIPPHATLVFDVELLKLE
Description: Cells (1.5 × 10^6 cells) were plated into 75 cm^2 flasks and allowed to attached overnight. After treatment with compound 4 or 5 for 6 h, they were harvested by trypsinisation and washed x2 in ice cold PBS. Cells were resuspended in 1 ml of cold PBS supplemented with protease and phosphatase inhibitors (Fisher Scientific, cat#1861281). Resuspended cells were divided into 100 μl aliquots and centrifuged at 300 x g for 3 min at 4 °C. Following centrifugation, 75μl of supernatant was removed and cells resuspended in the remaining volume. Cell suspensions were heated at 40.9, 43.7, 48.1, 52.9, 57.6, 62.4, 67.2, 71.9, 76.3 and 79.1 °C for 3 mins followed by cooling at 20 °C for 3 min[25]. Suspensions were freeze-thawed twice using liquid nitrogen. Soluble fractions were separated from cell debris by centrifuging at 20,000 x g for 30 min at 4 °C. Samples were then analysed by Western Blot. […]
Vinculin was used as a loading control. c Thermal stabilisation of eIF4E-dTAG protein by compound 4 or 5 binding. Quantification of immunoblots from H1299 C3-1cells incubated at 57.6 °C, following treatment with compound 4 (50, 25, 10, 5, 1, 0.5 μM) or compound 5 (50 μM) for 6 hr. Vinculin was […]
(1 picture or pasted object on this page, not shown here)

[4] = target: eIF4E:eIF4G interaction (Homo sapiens, UniProt P06730); assay: Electro-chemiluminescent binding assay, eIF4E:eIF4G, HeLa cell lysates; type: biochemical; design: endogenous in cells; host or cells: HeLa cells (lysates); conditions: for binding of eIF4G or 4E-BP1 with eIF4E, luminescence normalised to DMSO control, Average: HeLa, n=3, Fig. 4e
Chain of eIF4E:eIF4G interaction (P06730 2-217 limits assumed): as the sequence (P06730 2-217 limits assumed) above
Description: (§1) This assay uses plates with carbon electrodes and electro-chemiluminescent labels (SULFO-TAGs) that are conjugated to detection antibodies. When an electric current is applied to the plate electrodes the SULFO-TAG labels will emit light that is measured to quantify analytes in the sample. […] The plates were washed with 3 ×150 µl/well MSD wash buffer (cat#R61AA-1; 0.2% Tween-20 in PBS), then blocked with 150 µl/well block buffer (MSD, cat# R93AA) for 1 h. […] The incubated plates were washed 4x in 150 µl in MSD wash buffer and were re-blocked by the addition of 25 μl of blocking buffer containing a 1:500 dilution of the secondary antibody and incubated for 1 hr at RT with rotational shaking. […] Plates were then washed again 4x in 150 µl in MSD wash buffer and 25 μl of a 1:50 dilution of Goat anti-rabbit Sulfo-Tag (MSD, Cat# R32AB-1) in MSD blocking buffer was added and the plates incubated for 1 h at RT with rotational shaking. After a final wash step, 150 μl Read Buffer T4X (MSD, Cat# R92-TC2) was added and the plate read using the MSD QuickPlex SQ 120 plate reader.

[5] = target: T3, eIF4G binding to eIF4E (Homo sapiens, UniProt P06730); assay: Co-immunoprecipitation with eIF4E antibody, immunoblot for eIF4G, SW620 lysates; type: biochemical; conditions: 1–100 µM, 30 min
T3 construct: endogenous in cells; host or cells: SW620 cells (lysates)
T3 sequence (P06730 2-217 limits assumed): as above
Description: Cells were harvested by trypsinisation and washed with PBS before lysis in MSD lysis buffer (150 mM NaCl, 20 mM Tris pH 7.5, 1 mM EDTA, 1 mM EGTA, 1% Triton X-100) containing protease inhibitors (Roche, complete mini tablet, cat# 11836153001) and phosphatase inhibitors (50 mM NaF and 100 mM Na3VO4). Lysate was placed on ice for 30 min and then cleared in a microfuge at 17,000 x g for 10 min at 4 °C. The protein concentration of the cleared lysate was determined by BCA assay (Pierce) and adjusted to 4 mg/ml with lysis buffer. […] 100 μl of lysate and 100 μl of beads were then incubated with shaking overnight at 4 °C. Samples were then washed 3x with 1 ml PBS, resuspended in 100 μl PBS and boiled for 10 min with 1x SDS-PAGE sample buffer containing 10 μl 1 mM DTT.
After seeding overnight in 6 well plates (Corning, cat#353046), cells were treated with compounds for the indicated times and concentration, harvested and the cell pellet lysed on ice in cell lysis buffer (Cell Signaling, cat#9803), supplemented with 1x Halt^TM protease inhibitor cocktail (Fisher Scientific, cat#78429) and cOmplete^TM protease inhibitor cocktail (Sigma-Aldrich, cat#11836153001) for 1 hr. Protein was quantified using BCA protein kit (Fisher Scientific, cat#23225). […] Quantitative densitometry analysis of protein bands was performed using Image J v1.53 software.

[6] = target: T4, eIF4E major variant (D127) (Homo sapiens, UniProt P06730); type: binding
T4 construct: made in house; host or cells: E. coli (as described for clone 2983)
T4 sequence (P06730 with tags, fused parts or gaps): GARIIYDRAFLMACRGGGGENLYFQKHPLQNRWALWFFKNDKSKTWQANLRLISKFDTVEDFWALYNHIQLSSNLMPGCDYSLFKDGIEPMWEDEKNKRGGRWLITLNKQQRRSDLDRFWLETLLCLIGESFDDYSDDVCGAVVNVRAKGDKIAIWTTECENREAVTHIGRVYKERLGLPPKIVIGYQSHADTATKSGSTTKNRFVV
Description: ITC experiments were performed on either a MicroCal VP-ITC or a MicroCal Auto-ITC200 at 25 °C in a buffer comprising 50 mM HEPES, 100 mM NaCl, 1 mM TCEP and 5% DMSO at pH 7.5. Typical titrations on the MicroCal VP-ITC were performed using 17 × 16.4 µL injections with a 250 s spacing between each injection and with a stirring speed of 307 rpm. Typical titrations on the MicroCal Auto-ITC200 were performed using 12 × 3 µL injections with a 150 s spacing between each injection and with a stirring speed of 750 rpm. ITC data analyses were performed with Origin 7.0 software using the “One Set of Sites” model.

[7] = tested on: cap-dependent and cap-independent (IRES) protein synthesis; assay: Bicistronic protein synthesis reporter in H1299 cells; type: cell-based, human; conditions: 24 hr; for protein synthesis reporter signal (cap-dependent luciferase / IRES luciferase), replicate values: H1299, normalisation not stated
Description: H1299 cells were transfected with a biscistronic vector using Lipofectamine 3000 transfection reagent (Fisher Scientific, cat#L3000008) for 24 hr and then treated with compounds for further 24 h. Luminescence was measured after 24 h of compound treatment using the Dual Glo luciferase reporter assays as above.

[8] = target: eIF4E–4E-BP1 interaction (Homo sapiens, UniProt P06730); assay: Electro-chemiluminescent binding assay, eIF4E:4E-BP1, HeLa cell lysates; type: biochemical; design: endogenous in cells; host or cells: HeLa cell lysates
Chain of eIF4E–4E-BP1 interaction (P06730 2-217 limits assumed): as the sequence (P06730 2-217 limits assumed) above
Description: as §1

[9] = HeLa lysates, 100 µM, 30 min, single experiments Expt 1, Expt 2

`CC[C@H](O[C@H](C)CO)c1ccc(-c2ccccc2F)cc1NCCO` [Compound 4] was tested, and the “disruption of eIF4E:eIF4G binding in intact cells” value ([1]; 16 hr) was “significantly disrupt eIF4E:eIF4G binding”, the “endogenous eIF4E:eIF4G interaction in intact cells, electro-chemiluminescent signal, Average” value ([1]; 6hr, control 1641896.8) was 1444726.0 and the “endogenous eIF4E:eIF4G interaction in intact cells, electro-chemiluminescent signal, Average” value ([1]; 16hr, control 1700881.1) was 549014.1. The antiproliferative activity ([2]; H1299, 96 hr) was “lacked on-target antiproliferative activity”, the “Cell viability by cell titre blue assay, Average” value (from here on “Cell viability”) ([2]; 0.62 uM) was 93.752 and the “Cell viability” value ([2]; 1.85 uM) was 89.518. The “Cell viability” value ([2]; 5.56 uM) was 87.397, the “Cell viability” value ([2]; 16.67 uM) was 77.938 and the “Cell viability” value ([2]; 50 uM) was 33.702. For the same molecule, the “Thermal stabilisation of eIF4E-dTAG protein, Average” value (“Thermal stabilisation” for short) ([3]; 0.5 μM) was 1.070, the “Thermal stabilisation” value ([3]; 1 μM) was 1.047 and the “Thermal stabilisation” value ([3]; 5 μM) was 1.235. The “Thermal stabilisation” value ([3]; 10 μM) was 1.737, the “Thermal stabilisation” value ([3]; 25 μM) was 1.613 and the “Thermal stabilisation” value ([3]; 50 μM) was 1.946. The EC50 ([4]; HeLa cell lysates, n = 4, read-out: Inhibition of PPI in HeLa cells: eIF4E-eIF4G interaction) was 1400 nM, the “eIF4G:eIF4E HeLa, luminescence ratio normalised to DMSO control” value [4, 9] was 6.4% and 10% and the “binding of eIF4G or 4E-BP1 with eIF4E, luminescence normalised to DMSO control, Average” value ([4]; Conc 0.03 μM) was 97.2%. The “binding of eIF4G or 4E-BP1 with eIF4E, luminescence normalised to DMSO control, Average” value ([4]; Conc 0.1 μM) was 114.5%, the “binding of eIF4G or 4E-BP1 with eIF4E, luminescence normalised to DMSO control, Average” value ([4]; Conc 0.3 μM) was 82.4% and the “binding of eIF4G or 4E-BP1 with eIF4E, luminescence normalised to DMSO control, Average” value ([4]; Conc 1 μM) was 79.9%. The “binding of eIF4G or 4E-BP1 with eIF4E, luminescence normalised to DMSO control, Average” value ([4]; Conc 3 μM) was 54.2%, the “binding of eIF4G or 4E-BP1 with eIF4E, luminescence normalised to DMSO control, Average” value ([4]; Conc 10 μM) was 38.7% and the “binding of eIF4G or 4E-BP1 with eIF4E, luminescence normalised to DMSO control, Average” value ([4]; Conc 30 μM) was 33.9%. For the same molecule, the “binding of eIF4G or 4E-BP1 with eIF4E, luminescence normalised to DMSO control, Average” value ([4]; Conc 100 μM) was 26.4%, the “binding of eIF4G or 4E-BP1 with eIF4E, luminescence normalised to DMSO control, Average” value ([4]; Conc 300 μM) was 22.8% and the “binding of eIF4G or 4E-BP1 with eIF4E, luminescence normalised to DMSO control, Average” value ([4]; Conc 1000 μM) was 28.1%. The “effect on eIF4G binding to eIF4E (co-immunoprecipitation)” value [5] was “disrupted eIF4G binding to eIF4E”, the “enthalpy DH” value ([6]; ITC, eIF4E D127) was -10.2 kcal/mol and the “entropic penalty -TDS” value ([6]; ITC, eIF4E D127) was 0.6 ± 0.4 kcal/mol. For the same molecule, the “LE (ligand efficiency)” value ([6]; major variant D127 (values in parentheses)) was 0.38 (kcal/mol)/heavy atom, the Kd ([6]; read-out: eIF4E Kd, ITC, major variant D127 (values in parentheses)) was 90 nM and the “protein synthesis reporter signal (cap-dependent luciferase / IRES luciferase), replicate values” ([7]; 10 μM) was 0.798 and 0.925 and 1.853 and 1.040 and 0.865 and 0.241. The “protein synthesis reporter signal (cap-dependent luciferase / IRES luciferase), replicate values” ([7]; 25 μM) was 1.174 and 0.369 and 0.133 and 0.780 and 0.760 and 1.031, the “inhibitory activity in dual reporter assay” value ([7]; H1299 cells) was “lacked inhibitory activity” and the “4E-BP1:eIF4E HeLa, luminescence ratio normalised to DMSO control” value [8, 9] was 88% and 92%. The EC50 ([8]; read-out: Inhibition of PPI in HeLa cells: eIF4E–4E-BP1 interaction, HeLa cell lysates, values in parentheses) was over 100000 nM.
